Source: patent US20140256690A1, “CONTRACEPTIVE METHOD” (AGILE THERAPEUTICS, INC., priority 2013, published 2014)

Test: Saturation solubilities of enhancers in PSAs
Assay type: physicochemical
[1] = in Duro-Tak 87-4098 (polyacrylate PSA)

SMILES	Saturation Solubilities [1] [mg/g]	Saturation Solubilities (in PIB PSA) [mg/g]
C[S+](C)[O-] [DMSO, dimethyl sulfoxide]	8	0.01
CCCCCCCCCCCCOC(=O)C(C)O (stereo not shown) [Lauryl Lactate, lauryl lactate]	1000	785
